Consider one compound from patent publication US6399319B1, “Protein kinase assay as a method for identification of fungicides” (Syngenta Crop Protection, Inc., priority 1996, dated 2002).

One experiment concerns protein kinase PK-III. The experiment is described as follows: Protein kinase inhibition assay, PK-III fraction (protamine-sulfate, [γ-33P]ATP). Format: biochemical, Neurospora crassa. The note with it: 100 μM in the enzyme assay mixture; protamine-sulfate as substrate; relative to DMSO control (=0% inhibition). As for the experimental part: (§1) Mycelium from a stock culture of the wild-type strain 74-OR8-1, obtained from the American Type Culture Collection (ATCC 18889), is grown as inoculum in Petri dishes (d=9 cm) at 24° C. in the dark for 14 days (medium: Biomalt 10 g, Difco dry yeast extract 4 g, glucose 4 g and agar 20 g, in 1 l water). […]
(§2) Protein kinase activity is assayed in a reaction mixture containing in a final volume of […], 20 mM Tris-HCl (pH 7.4), 20 mg protamine-sulfate, 10 mM Mg(NO3)2, 10 mM ATP (0.2 mCi [g-^33P]ATP), 1 mM NaN3, 0.04 mM okadaic acid, […] of protein kinase. After 20 minutes incubation at 32° C., aliquots of […] are analyzed for substrate phosphorylation using P81 chromatography paper (20 mm×20 mm; Whatman, Maidstone, UK) according to the method described by J. J. Witt and R. Roskoski (Anal. Biochem., 66, 253-258, 1975). After washing the unbounded radioactivity with 75 mM phosphoric acid (3×15 min) and ethanol 94% (1×5 min) the radioactivity in the chromatography paper is counted in 5 ml ULTIMA GOLD LSC-cocktail (Packard Instrument, Zürich, Switzerland) using a Tri-Carb 2500 TR Packard Instrument. […]

A further experiment concerns protein kinase PK-II. The experiment is described as follows: Protein kinase inhibition assay, PK-II fraction (protamine-sulfate, [γ-33P]ATP). Format: biochemical, Neurospora crassa. The note with it: 100 μM in the enzyme assay mixture; protamine-sulfate as substrate; relative to DMSO control (=0% inhibition). As for the experimental part: as §1, §2

As for `N#Cc1c[nH]cc1-c1cccc(Cl)c1Cl` [fenpiclonil, 4-(2,3-dichlorophenyl)pyrrole-3-carbonitrile], the “inhibition of protein kinase PK-III” value with protein kinase PK-III was 90%. The “inhibition of protein kinase PK-II” value with protein kinase PK-II is listed as 67%.
